Data from ChEMBL document CHEMBL1914287, “Synthesis and in vivo evaluation of [18F]N-(2-benzofuranylmethyl)-N'-[4-(2-fluoroethoxy)benzyl]piperazine, a novel σ1 receptor PET imaging agent” (Bioorg Med Chem Lett, 2011).

Columns and labels:
[1] = Binding affinity to sigma 2 receptor by radioligand displacement assay
[2] = target: T1, Sigma non-opioid intracellular receptor 1 (Homo sapiens, UniProt Q99720); test: Binding affinity to sigma 1 receptor by radioligand displacement assay
[3] = target: Sigma non-opioid intracellular receptor 1 (Cavia porcellus, UniProt Q60492); test: Binding affinity to sigma 1 receptor in guinea pig brain membrane; assay type: cell membranes
Sigma non-opioid intracellular receptor 1 (Cavia porcellus, UniProt Q60492), sequence (Q60492 whole entry): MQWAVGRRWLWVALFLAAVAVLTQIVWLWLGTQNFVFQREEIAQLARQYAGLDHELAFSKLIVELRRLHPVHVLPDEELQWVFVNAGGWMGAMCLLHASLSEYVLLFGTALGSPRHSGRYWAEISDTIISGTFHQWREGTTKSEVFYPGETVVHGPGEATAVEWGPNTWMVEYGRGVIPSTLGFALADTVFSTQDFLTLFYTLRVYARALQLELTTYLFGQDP

[4] = Binding affinity to sigma 2 receptor in guinea pig brain membrane; assay type: cell membranes, Cavia porcellus
[5] = tested on: Rhesus monkey; test: Inhibition of sigma 2 receptor in conscious monkey brain at 220 to 802 MBq, iv; assay type: functional, organism-based; settings: Macaca mulatta
[6] = tested on: Rhesus monkey; test: Inhibition of sigma 1 receptor in conscious monkey brain at 220 to 802 MBq, iv; assay type: functional, organism-based; settings: Macaca mulatta
[7] = Drug uptake in cortex of baboon brain at 100 MBq, iv measured after 60 mins by microPET imaging; assay type: ADME, organism-based; settings: papio hamadryas, in vivo, 1 h
[8] = Drug uptake in thalamus of baboon brain at 100 MBq, iv administered 5 mins after haloperidol challenge measured within 3 mins by microPET imaging; assay type: ADME, organism-based; settings: papio hamadryas, in vivo
[9] = Drug uptake in right striatum of baboon brain at 100 MBq, iv measured within 5 mins by microPET imaging; assay type: ADME, organism-based; settings: papio hamadryas, in vivo
[10] = Drug uptake in left striatum of baboon brain at 100 MBq, iv administered 5 mins after haloperidol challenge measured within 3 mins by microPET imaging; assay type: ADME, organism-based; settings: papio hamadryas, in vivo
[11] = Drug uptake in left striatum of baboon brain at 100 MBq, iv measured within 5 mins by microPET imaging; assay type: ADME, organism-based; settings: papio hamadryas, in vivo
[12] = Drug uptake in thalamus of baboon brain at 100 MBq, iv measured after 60 mins by microPET imaging; assay type: ADME, organism-based; settings: papio hamadryas, in vivo, 1 h
[13] = Drug uptake in right striatum of baboon brain at 100 MBq, iv administered 5 mins after haloperidol challenge measured after 60 mins by microPET imaging; assay type: ADME, organism-based; settings: papio hamadryas, in vivo, 1 h
[14] = Drug uptake in cerebellum of baboon brain at 100 MBq, iv administered 5 mins after haloperidol challenge measured within 3 mins by microPET imaging; assay type: ADME, organism-based; settings: papio hamadryas, in vivo
[15] = Drug uptake in thalamus of baboon brain at 100 MBq, iv measured within 5 mins by microPET imaging; assay type: ADME, organism-based; settings: papio hamadryas, in vivo
[16] = Drug uptake in right striatum of baboon brain at 100 MBq, iv administered 5 mins after haloperidol challenge measured within 5 mins by microPET imaging; assay type: ADME, organism-based; settings: papio hamadryas, in vivo
[17] = Drug uptake in cerebellum of baboon brain at 100 MBq, iv measured after 60 mins by microPET imaging; assay type: ADME, organism-based; settings: papio hamadryas, in vivo, 1 h
[18] = Drug uptake in cortex of baboon brain at 100 MBq, iv administered 5 mins after haloperidol challenge measured within 3 mins by microPET imaging; assay type: ADME, organism-based; settings: papio hamadryas, in vivo
[19] = Drug uptake in left striatum of baboon brain at 100 MBq, iv measured after 60 mins by microPET imaging; assay type: ADME, organism-based; settings: papio hamadryas, in vivo, 1 h
[20] = Drug uptake in right striatum of baboon brain at 100 MBq, iv measured after 60 mins by microPET imaging; assay type: ADME, organism-based; settings: papio hamadryas, in vivo, 1 h
[21] = Drug uptake in thalamus of baboon brain at 100 MBq, iv administered 5 mins after haloperidol challenge measured within 5 mins by microPET imaging; assay type: ADME, organism-based; settings: papio hamadryas, in vivo
[22] = Drug uptake in right striatum of baboon brain at 100 MBq, iv administered 5 mins after haloperidol challenge measured within 3 mins by microPET imaging; assay type: ADME, organism-based; settings: papio hamadryas, in vivo
[23] = Drug uptake in cortex of baboon brain at 100 MBq, iv administered 5 mins after haloperidol challenge measured after 60 mins by microPET imaging; assay type: ADME, organism-based; settings: papio hamadryas, in vivo, 1 h
[24] = Drug uptake in cerebellum of baboon brain at 100 MBq, iv administered 5 mins after haloperidol challenge measured within 5 mins by microPET imaging; assay type: ADME, organism-based; settings: papio hamadryas, in vivo
[25] = Drug uptake in cortex of baboon brain at 100 MBq, iv measured within 5 mins by microPET imaging; assay type: ADME, organism-based; settings: papio hamadryas, in vivo
[26] = Drug uptake in cerebellum of baboon brain at 100 MBq, iv measured within 5 mins by microPET imaging; assay type: ADME, organism-based; settings: papio hamadryas, in vivo
[27] = Drug uptake in cerebellum of baboon brain at 100 MBq, iv administered 5 mins after haloperidol challenge measured after 60 mins by microPET imaging; assay type: ADME, organism-based; settings: papio hamadryas, in vivo, 1 h
[28] = Drug uptake in cortex of baboon brain at 100 MBq, iv administered 5 mins after haloperidol challenge measured within 5 mins by microPET imaging; assay type: ADME, organism-based; settings: papio hamadryas, in vivo
[29] = Drug uptake in left striatum of baboon brain at 100 MBq, iv administered 5 mins after haloperidol challenge measured within 5 mins by microPET imaging; assay type: ADME, organism-based; settings: papio hamadryas, in vivo
[30] = Drug uptake in thalamus of baboon brain at 100 MBq, iv administered 5 mins after haloperidol challenge measured after 60 mins by microPET imaging; assay type: ADME, organism-based; settings: papio hamadryas, in vivo, 1 h
[31] = Drug uptake in left striatum of baboon brain at 100 MBq, iv administered 5 mins after haloperidol challenge measured after 60 mins by microPET imaging; assay type: ADME, organism-based; settings: papio hamadryas, in vivo, 1 h
[32] = target: T1, Sigma non-opioid intracellular receptor 1; test: Binding affinity to sigma 1 receptor
[33] = Binding affinity to sigma 2 receptor

T1 sequence (Q99720 whole entry): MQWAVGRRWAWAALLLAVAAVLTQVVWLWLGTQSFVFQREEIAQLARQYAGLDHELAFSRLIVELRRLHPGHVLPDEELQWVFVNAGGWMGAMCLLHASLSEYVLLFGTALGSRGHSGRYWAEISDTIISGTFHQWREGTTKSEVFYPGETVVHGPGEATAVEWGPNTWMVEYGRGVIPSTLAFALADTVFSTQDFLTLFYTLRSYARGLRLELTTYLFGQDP

## FCCC1OC2(CCN(Cc3ccccc3)CC2)c2ccccc21 (stereo not drawn)
[1]
  Ki: 785 nM
[2]
  Ki: 0.59 nM

## O=C(NC1CCN(Cc2ccccc2)CC1)c1ccccc1F
[3]
  Ki: 3.39 nM
[4]
  Ki: 406 nM

## COc1cc(CCN2CCN(CCCc3ccc(F)cc3)CC2)ccc1OCCF
[5]
  IC50: 6.8 nM
[6]
  IC50: 3.1 nM

## [18F]CCOc1ccc(CN2CCN(Cc3cc4ccccc4o3)CC2)cc1
[7]
  Drug uptake: Active
[8]
  Drug uptake: Active
[9]
  Drug uptake: Active
[10]
  Drug uptake: Active
[11]
  Drug uptake: Active
[12]
  Drug uptake: Active
[13]
  Drug uptake: Not Active
[14]
  Drug uptake: Active
[15]
  Drug uptake: Active
[16]
  Drug uptake: Not Active
[17]
  Drug uptake: Active
[18]
  Drug uptake: Active
[19]
  Drug uptake: Active
[20]
  Drug uptake: Active
[21]
  Drug uptake: Not Active
[22]
  Drug uptake: Active
[23]
  Drug uptake: Not Active
[24]
  Drug uptake: Not Active
[25]
  Drug uptake: Active
[26]
  Drug uptake: Active
[27]
  Drug uptake: Not Active
[28]
  Drug uptake: Not Active
[29]
  Drug uptake: Not Active
[30]
  Drug uptake: Not Active
[31]
  Drug uptake: Not Active

## N#Cc1ccc(OCC2CCN(CCCF)CC2)cc1
[32]
  Ki: 4.3 nM
[33]
  Ki: 144 nM
